Results taken from patent US9018261B2, “Choline salt of an anti-inflammatory substituted cyclobutenedione compound” (Novartis AG, priority 2011, dated 2015).
Counter-ions that a name gives are not always drawn.

Assays:
[1] = solubility in aqueous solution at pH 1.0-7.0; format: physicochemical; details: aqueous buffer, pH 1.0-7.0, as a free acid
Experimental: [drawing 1] is a weakly acidic compound and is practically insoluble in aqueous solution at pH 1.0-7.0 as a free acid (<0.005 mg/ml).

[2] = hygroscopicity (amount of water absorbed); format: physicochemical
Source text: Furthermore, the hygroscopicity of the choline salt is much reduced compared with the free acid. The amount of water absorbed by the free acid is 2.4% and 2.8% by weight after 1 day at 80% and 92% humidity, respectively, and the amount of water absorbed by the choline salt is 0.7% and 0.6% by weight after 1 day at 80% and 92% humidity, respectively.

[3] = solubility in simulated gastric fluid; format: physicochemical
[4] = conversion into free acid form in gastric acidic conditions; format: physicochemical
Source text: The result of this is poor bioavailability of 6-chloro-3-[2-(1-ethyl-propylamino)-3,4-dioxo-cyclobut-1-enylamino]-2-hydroxy-N-methoxy-N-methyl-benzenesulfonamide.

dissolution rate at pH 1 = format: physicochemical
Experimental: (§1) The choline salt has also a much improved dissolution rate at pH 1 and oral exposure when dosed at 10 mg/kg to male SPRAGUE DAWLEY® rats compared to the free acid form.

[5] = pharmacokinetic study in male beagle dogs (plasma concentrations); details: dog, in vivo, 0.3 mg/kg
[6] = oral exposure in male SPRAGUE DAWLEY rats; format: in vivo; details: dosed at 10 mg/kg to male SPRAGUE DAWLEY rats
Experimental: as §1

CCC(CC)Nc1c(Nc2ccc(Cl)c(S(=O)(=O)N(C)OC)c2O)c(=O)c1=O [free acid, 6-chloro-3-[2-(1-ethyl-propylamino)-3,4-dioxo-cyclobut-1-enylamino]-2-hydroxy-N-methoxy-N-methyl-benzenesulfonamide]
solubility [1]: < 5 µg/mL | amount of water absorbed ([2]; after 1 day at 80% humidity): 2.4 % by weight | amount of water absorbed ([2]; after 1 day at 92% humidity): 2.8 % by weight

CCC(CC)Nc1c(Nc2ccc(Cl)c(S(=O)(=O)N(C)OC)c2O)c(=O)c1=O [choline salt, 6-chloro-3-[2-(1-ethyl-propylamino)-3,4-dioxo-cyclobut-1-enylamino]-2-hydroxy-N-methoxy-N-methyl-benzenesulfonamide choline]
solubility ([3]; simulated gastric fluid at pH 1.2): 8020 µg/mL | solubility in simulated gastric fluid compared to other salts ([3]; vs sodium, calcium, N,N-dimethyl-2-aminoethanol and N-(2-hydroxyethyl)pyrrolidine salts): significantly improved | conversion into the free acid form [4]: readily converts | dissolution rate compared to the free acid form (dissolution rate at pH 1): much improved | amount of water absorbed ([2]; after 1 day at 80% humidity): 0.7 % by weight | amount of water absorbed ([2]; after 1 day at 92% humidity): 0.6 % by weight | systemic exposure after intravenous administration [5]: 912 ± 126 ng·h/mL | oral exposure compared to the free acid form [6]: much improved
